From PubChem BioAssay AID248 (DTP/NCI, 2004)
“And” between values parts separate entries of the source, which are not always exact repeats. Equal entries are not always repeated. Inconclusive results and toxic doses are left out. Rule as the data show it: active = T/C of 150% or more; inactive = T/C below 125%.

Tested on: L1210 leukemia ip in BDF1 mice, survival T/C
Experiment: NCI In Vivo Anticancer Drug Screen. Data for tumor model L1210 Leukemia (intraperitoneal) in B6D2F1 (BDF1) mice
Conditions: endpoint: mean survival time, higher = longer survival
How it was run: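 Antitumor effect is assessed in tumor-bearing animals. Survival in the compound arm is compared with a vehicle-dosed control arm and expressed as their quotient.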

[1] = dose: 100.0 mg/kg/injection, schedule: Q01DX001 (ip), vehicle: other
[2] = dose: 200.0 mg/kg/injection, schedule: Q01DX001 (ip), vehicle: other
[3] = dose: 400.0 mg/kg/injection, schedule: Q01DX001 (ip), vehicle: other
[4] = dose: 50.0 mg/kg/injection, schedule: Q01DX009 (ip), vehicle: Klucel (hydroxypropylcellulose) (HPC)
[5] = dose: 100.0 mg/kg/injection, schedule: Q01DX009 (ip), vehicle: Klucel (hydroxypropylcellulose) (HPC)
[6] = dose: 200.0 mg/kg/injection, schedule: Q01DX009 (ip), vehicle: Klucel (hydroxypropylcellulose) (HPC)
[7] = dose: 100.0 mg/kg/injection, schedule: Q04DX003 (ip), vehicle: saline
[8] = dose: 200.0 mg/kg/injection, schedule: Q04DX003 (ip), vehicle: saline
[9] = dose: 400.0 mg/kg/injection, schedule: Q01DX009 (ip), vehicle: Klucel (hydroxypropylcellulose) (HPC)
[10] = dose: 100.0 mg/kg/injection, schedule: Q04DX002 (ip), vehicle: Klucel (hydroxypropylcellulose) (HPC)
[11] = dose: 100.0 mg/kg/injection, schedule: Q01DX009 (ip), vehicle: saline
[12] = dose: 200.0 mg/kg/injection, schedule: Q01DX009 (ip), vehicle: saline

Measured: T/C

CCOc1nc(N)nc2n[nH]nc12
inactive: dose: 82.0 mg/kg/injection, schedule: Q01DX Z (ip), vehicle: carboxymethylcellulose (CMC) 93 % of control | dose: 175.0 mg/kg/injection, schedule: Q01DX Z (ip), vehicle: carboxymethylcellulose (CMC) 112 % of control | dose: 262.0 mg/kg/injection, schedule: Q01DX Z (ip), vehicle: carboxymethylcellulose (CMC) 95 % of control

O=[N+]([O-])c1ccc2cnn(C[N+]34CN5CN(CN(C5)C3)C4)c2c1
inactive: [1] 103 % of control | [2] 100 % of control | [3] 111 % of control

O=C(O)c1ccccc1C(=O)Nc1cccc(C(F)(F)F)c1
inactive: [4] 101 % of control | [5] 101 % of control | [6] 99 % of control

CNC1C(OC2C(OC)OC(C)C2(O)CO)OC(CO)C(O)C1O (stereo not drawn)
inactive: [7] 110 % of control | [8] 97 % of control | dose: 400.0 mg/kg/injection, schedule: Q04DX003 (ip), vehicle: saline 97 % of control

CCCCNC(=S)NC1CC(O[C@H]2C[C@](O)(C(C)=O)Cc3c(O)c4c(c(O)c32)C(=O)c2c(OC)cccc2C4=O)OC(C)C1O (stereo partly drawn)
inactive: dose: 100.0 mg/kg/injection, schedule: Q01DX009 (ip), vehicle: saline with Tween-80 94 % of control

CC(O)(C(N)=O)c1cc(Cl)ccc1Cl (stereo not drawn)
inactive: dose: 100.0 mg/kg/injection, schedule: Q01DX009 (ip), vehicle: water 94 % of control | dose: 100.0 mg/kg/injection, schedule: Q04DX003 (ip), vehicle: water 90 % of control | dose: 200.0 mg/kg/injection, schedule: Q01DX009 (ip), vehicle: water 96 % of control | dose: 200.0 mg/kg/injection, schedule: Q04DX003 (ip), vehicle: water 95 % of control | dose: 400.0 mg/kg/injection, schedule: Q01DX009 (ip), vehicle: water 107 % of control | dose: 400.0 mg/kg/injection, schedule: Q04DX003 (ip), vehicle: water 96 % of control

Cc1cc([N+](=O)[O-])c(N/N=C/c2ccccc2Cl)c([N+](=O)[O-])c1
inactive: [5] 101 % of control | [6] 95 % of control | [9] 95 % of control

CCCCN(Cc1ccccc1)C(=O)Nc1ccccc1
inactive: [5] 97 % of control | [6] 111 % of control | [9] 100 % of control

O=C(O)[C@H](O)[C@@H](O)C(=O)O.[Ga]
inactive: dose: 100.0 mg/kg/injection, schedule: Q01DX001 (ip), vehicle: saline 106 % of control | dose: 200.0 mg/kg/injection, schedule: Q01DX001 (ip), vehicle: saline 100 % of control | dose: 400.0 mg/kg/injection, schedule: Q01DX001 (ip), vehicle: saline 104 % of control

c1ccc(-c2cccc(-c3ccccc3)c2)cc1
inactive: dose: 100.0 mg/kg/injection, schedule: Q04DX003 (ip), vehicle: Klucel (hydroxypropylcellulose) (HPC) 93 % of control | dose: 200.0 mg/kg/injection, schedule: Q04DX003 (ip), vehicle: Klucel (hydroxypropylcellulose) (HPC) 108 % of control | dose: 400.0 mg/kg/injection, schedule: Q04DX003 (ip), vehicle: Klucel (hydroxypropylcellulose) (HPC) 90 % of control

CC/C=C(CC)/C(CC)=C(\Br)CC
inactive: [7] 94 % of control | [8] 92 % of control

CCCCCOC(=O)c1cccc2c1-c1ccccc1C2=O
inactive: [1] 93 % of control | [2] 98 % of control | [3] 93 % of control

Cc1cccc(Cl)c1NC(=O)Oc1ccccc1C(N)=O
inactive: [5] 92 % of control | [10] 95 % of control | [6] 100 % of control | dose: 200.0 mg/kg/injection, schedule: Q04DX002 (ip), vehicle: Klucel (hydroxypropylcellulose) (HPC) 100 % of control | [9] 105 % of control | dose: 400.0 mg/kg/injection, schedule: Q04DX002 (ip), vehicle: Klucel (hydroxypropylcellulose) (HPC) 100 % of control

C#CC(C)(C)OCC(O)CCl (stereo not drawn)
inactive: [11] 96 % of control | dose: 100.0 mg/kg/injection, schedule: Q04DX003 (ip), vehicle: saline sonified 114 % of control | [12] 89 % of control | dose: 200.0 mg/kg/injection, schedule: Q04DX003 (ip), vehicle: saline sonified 109 % of control | dose: 400.0 mg/kg/injection, schedule: Q04DX003 (ip), vehicle: saline sonified 109 % of control

CC(C)(C)Sc1cc(C#N)ccn1
inactive: dose: 50.0 mg/kg/injection, schedule: Q04DX003 (ip), vehicle: other 100 % of control and 92 % of control | dose: 100.0 mg/kg/injection, schedule: Q04DX002 (ip), vehicle: other 103 % of control and 109 % of control | dose: 200.0 mg/kg/injection, schedule: Q04DX002 (ip), vehicle: other 98 % of control and 102 % of control | dose: 400.0 mg/kg/injection, schedule: Q04DX002 (ip), vehicle: other 103 % of control and 106 % of control

Cn1ncc2c(N)ncnc21
inactive: dose: 6.0 mg/kg/injection, schedule: Q01DX015 (ip), vehicle: carboxymethylcellulose (CMC) 108 % of control | dose: 12.0 mg/kg/injection, schedule: Q01DX015 (ip), vehicle: carboxymethylcellulose (CMC) 101 % of control | dose: 12.5 mg/kg/injection, schedule: Q01DX009 (ip), vehicle: Klucel (hydroxypropylcellulose) (HPC) 102 % of control | dose: 25.0 mg/kg/injection, schedule: Q01DX009 (ip), vehicle: Klucel (hydroxypropylcellulose) (HPC) 107 % of control | dose: 25.0 mg/kg/injection, schedule: Q01DX015 (ip), vehicle: carboxymethylcellulose (CMC) 108 % of control | [4] 91 % of control | dose: 50.0 mg/kg/injection, schedule: Q01DX015 (ip), vehicle: carboxymethylcellulose (CMC) 101 % of control | dose: 100.0 mg/kg/injection, schedule: Q01DX001 (ip), vehicle: carboxymethylcellulose (CMC) 103 % of control | dose: 200.0 mg/kg/injection, schedule: Q01DX001 (ip), vehicle: carboxymethylcellulose (CMC) 98 % of control | dose: 400.0 mg/kg/injection, schedule: Q01DX001 (ip), vehicle: carboxymethylcellulose (CMC) 106 % of control

SC1(S)CC(c2ccc(Cl)cc2)NC(c2ccc(Cl)cc2)C1 (stereo not drawn)
inactive: dose: 50.0 mg/kg/injection, schedule: Q01DX009 (ip), vehicle: saline 100 % of control | [11] 93 % of control and 102 % of control | [7] 98 % of control | [12] 93 % of control and 103 % of control | [8] 89 % of control

N/C(=N\[N+](=O)[O-])Nc1nc2ccccc2s1
inactive: [10] 113 % of control

CC1OCC(C[N+](C)(C)C)O1 (stereo not drawn)
inactive: dose: 0.09 mg/kg/injection, schedule: Q04DX002 (ip), vehicle: saline 95 % of control | dose: 0.18 mg/kg/injection, schedule: Q04DX002 (ip), vehicle: saline 106 % of control | dose: 0.37 mg/kg/injection, schedule: Q04DX002 (ip), vehicle: saline 95 % of control | dose: 0.75 mg/kg/injection, schedule: Q04DX002 (ip), vehicle: saline 103 % of control and 109 % of control | dose: 1.5 mg/kg/injection, schedule: Q04DX002 (ip), vehicle: saline 100 % of control and 106 % of control

COc1cccc(C[P+](C/C=C/c2ccccc2)(c2ccccc2)c2ccccc2)c1
inactive: dose: 6.25 mg/kg/injection, schedule: Q04DX003 (ip), vehicle: Klucel (hydroxypropylcellulose) (HPC) 109 % of control | dose: 12.5 mg/kg/injection, schedule: Q04DX003 (ip), vehicle: Klucel (hydroxypropylcellulose) (HPC) 88 % of control | dose: 25.0 mg/kg/injection, schedule: Q04DX003 (ip), vehicle: Klucel (hydroxypropylcellulose) (HPC) 97 % of control

CCCCCCOc1ccc(C(=N)N(CCCC)CCCC)c2ccccc12
inactive: dose: 5.0 mg/kg/injection, schedule: Q01DX001 (ip), vehicle: saline 97 % of control | dose: 10.0 mg/kg/injection, schedule: Q01DX001 (ip), vehicle: saline 97 % of control | dose: 20.0 mg/kg/injection, schedule: Q01DX001 (ip), vehicle: saline 89 % of control
